# What was measured:
# velvetleaf [1] = assay: Field testing of emulsifiable concentrates, post-emergent control (Example 38); format: in vivo; conditions: for % control, 280 g/ha, Velvetleaf: 280 g dicamba acid equivalent per hectare; for % control, 280 g/ha, Velvetleaf / % control, 420 g/ha, Velvetleaf: 11 or 21 days after treatment; for % control, 420 g/ha, Velvetleaf: 420 g dicamba acid equivalent per hectare
# Excerpt: (§1) Four dicamba esters, 1a, 2, 9, and 13a, were formulated as emulsifiable concentrates for field testing. All formulations contained 5% each of a alkylbenzene sulfonate calcium salt (Huntsman NANSA EVM 62/H or Akzo Nobel WITCONATE P-1220 EH) and castor oil ethoxylate (Huntsman SURFONIC CO-54) as the emulsifiers and Aromatic 200 (Exxon) or monochlorobenzene (MCB) as the solvent.
# (§2) The esters were compared to the diglycolamine salt of dicamba (CLARITY™) for post-emergent control of three broadleaf weeds: velvetleaf, morning glory, and hemp sesbania. Rates of 280 and 420 g dicamba acid equivalent per hectare were used. […] Evaluations were conducted at 11 or 21 days after treatment. Locations and timing were identical for all formulations tested.
# hemp sesbania [2] = assay: as above; format: in vivo; conditions: for % control, 280 g/ha, Hemp sesbania: 280 g dicamba acid equivalent per hectare; for % control, 280 g/ha, Hemp sesbania / % control, 420 g/ha, Hemp sesbania: 11 or 21 days after treatment; for % control, 420 g/ha, Hemp sesbania: 420 g dicamba acid equivalent per hectare
# Excerpt: as §1, §2
# morning glory [3] = assay: as above; format: in vivo; conditions: for % control, 280 g/ha, Morning glory: 280 g dicamba acid equivalent per hectare; for % control, 280 g/ha, Morning glory / % control, 420 g/ha, Morning glory: 11 or 21 days after treatment; for % control, 420 g/ha, Morning glory: 420 g dicamba acid equivalent per hectare
# Excerpt: as §1, §2
# velvetleaf [4] = assay: Greenhouse post-emergent control of velvetleaf by emulsifiable concentrates (Example 30); format: in vivo
# Description: (§3) The efficacy of some photo-labile ester formulations from Example 28 for post-emergent control of velvetleaf was tested in the greenhouse. All formulations were tested at rates of 140, 280, 420, and 560 g dicamba equivalent per hectare rates and compared to the diglycolamine salt of dicamba (CLARITY®) at the same rates and untreated control plants. The velvetleaf plants were 10-15 cm in height at the time of spraying. Percent control was evaluated three weeks after treatment.
# The methodology of Example 29 was used to evaluate the efficacy of several photo-labile esters of dicamba for post-emergent control of velvetleaf as emulsifiable concentrate formulations described in Example 28.
# velvetleaf [5] = assay: Field testing of emulsifiable concentrates, post-emergent control (Example 40); format: in vivo
# Description: (§4) Three dicamba esters, 30a, 32a, and 36a, were formulated as emulsifiable concentrates for field testing. All surfactants are commercial materials from Stepan.
# (§5) The formulations were tested in the field. Locations and timing were identical for the three esters, but differed slightly for the diglycolamine control. The esters were compared to the diglycolamine salt of dicamba (CLARITY™) for post-emergent control of three broadleaf weeds: velvetleaf, morning glory, and hemp sesbania. Rates of 280 and 560 g dicamba acid equivalent per hectare were used.
# hemp sesbania [6] = assay: as above; format: in vivo
# Description: as §4, §5
# morning glory [7] = assay: as above; format: in vivo
# Description: as §4, §5
# velvetleaf [8] = assay: Greenhouse post-emergent control of velvetleaf by emulsifiable concentrates (Example 37); format: in vivo; conditions: greenhouse, Example 37
# How it was run: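 Photo-labile dicamba ester emulsifiable concentrates sprayed post-emergence in the greenhouse on velvetleaf 10-15 cm tall at 140, 280, 420 and 560 g dicamba equivalent per hectare. Percent control scored three weeks after treatment.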
# Euphorbia species = assay: Field testing for post-emergent activity in the Southern Hemisphere (Example 39); format: in vivo; conditions: 9 as suspension concentrate, other esters as emulsifiable concentrates; for % control, 0.25 lb/ac (0.28 kg/hectare): 0.25 lb dicamba a.e. per acre; for % control, 0.50 lb/ac (0.56 kg/hectare): 0.50 lb dicamba a.e. per acre
# Description: The primary weeds were Euphorbia species. Ester 9 was tested as a suspension concentrate using the formulation of Example 33 The other esters were tested as emulsifiable concentrates having the formulations shown in the table below. Akzo Nobel SPONTO EC 334 and SPONTO EC 336 along with SURFONIC CO-54 and […] (Huntsman) were used as emulsifiers and Aromatic 200 (A 200; Exxon) was used as the solvent. […] The diglycolamine salt of dicamba (CLARITYTM) was used as a comparator.
# [9] = Field dicamba volatility, airborne dicamba collected by air samplers (Example 34); format: physicochemical; conditions: field plot, 0.5 lb/acre dicamba a.e. with ROUNDUP WEATHERMAX, airborne dicamba collected over 24 hours, maximum 86° F.
# velvetleaf [10] = assay: Greenhouse post-emergent control of velvetleaf by emulsifiable concentrates (Example 29); format: in vivo; conditions: three weeks after treatment; for % Control of velvetleaf, 140 g/ha: 140 g dicamba equivalent per hectare; for % Control of velvetleaf, 280 g/ha: 280 g dicamba equivalent per hectare; for % Control of velvetleaf, 420 g/ha: 420 g dicamba equivalent per hectare; for % Control of velvetleaf, 560 g/ha: 560 g dicamba equivalent per hectare
# Description: as §3
# [11] = test system: glyphosate-tolerant, dicamba-sensitive soy plants; assay: Humidome volatility injury to dicamba-sensitive plants (Example 31); conditions: in vivo
# Excerpt: In this case, the diglycolamine salt of dicamba (CLARITY®) was used for comparison.
# Dicamba photo-labile ester formulations from Example 28 were mixed with a commercial glyphosate formulation (ROUNDUP POWERMAX®) and diluted to provide a solution with a 0.5% dicamba equivalent concentrate of the ester (or dicamba diglycolamine salt) and 1.5% concentrate of glyphosate. The mixtures were sprayed at a 10 gallon per acre (93.5 liters per hectare) rate on soil in a plastic container (“humidome”) with a transparent lid. One soil container was sprayed with water as a control. Four glyphosate-tolerant, dicamba-sensitive soy plants between V2 and V3 stage were immediately placed on the sprayed soil and the domes attached to the trays with binder clips. The soy plants were in pots placed directly on the soil but with aluminum foil wrapped around the bottom to prevent uptake of dicamba or dicamba esters through the roots.
# The closed containers were held for 24 hours in a growth chamber which was maintained at 35° C. with 40% relative humidity. The plants were then removed and grown in a greenhouse for three weeks. At this time plant injury and growth stage were assessed compared to the control treated with water only.
# soybeans = assay: Humidome volatility injury, ester 32a emulsifiable concentrate (Example 32); conditions: in vivo
# Excerpt: […] The mixtures were sprayed at a 10 gallon per acre (93.5 liters per hectare) rate on soil in a plastic container (“humidome”) with a transparent lid. One soil container was sprayed with water as a control. Four glyphosate-tolerant, dicamba-sensitive soy plants between V2 and V3 stage were immediately placed on the sprayed soil and the domes attached to the trays with binder clips. The soy plants were in pots placed directly on the soil but with aluminum foil wrapped around the bottom to prevent uptake of dicamba or dicamba esters through the roots.
# The closed containers were held for 24 hours in a growth chamber which was maintained at 35° C. with 40% relative humidity. […] At this time plant injury and growth stage were assessed compared to the control treated with water only.
# [12] = Solubility of the esters (statements of the description); format: physicochemical; conditions: qualitative
# broadleaf weeds = assay: Control of broadleaf weeds by ester concentrates (statements of the description); format: in vivo; conditions: emulsifiable and suspension concentrates; Sesbania macrocarpa, morning glory, velvetleaf, Palmer amaranth, fat hen, sicklepod
# [13] = In vitro dicamba photo-release from photo-labile dicamba esters, tetrahydrofuran solvent (Example 26); format: physicochemical
# Description: This Example describes in vitro testing of dicamba photo-release by homogeneous solutions of photo-labile dicamba esters. The esters were dissolved in tetrahydrofuran (THF). Ester concentration was 0.1 mM. 25 ml of the solution was transferred to 22 mm tubes fabricated from graded seal quartz tubing with a 19/22 tapered seal at the top, which was closed with a tapered glass plug and secured with a plastic ring clamp. The solution was entirely below the quartz-to-glass transition, ensuring that the entire volume was exposed to the full spectrum.
# The sealed tubes were placed in a Growth Chamber where they were exposed to simulated sunlight for 14 hours per day at 35° C. Dicamba concentrations in the solution were measured during the course of the photolysis.
# A sample of the initial solution was reserved in a glass vial away from the light source and analyzed at the conclusion of the study, providing a measurement of the amount of dicamba present without illumination of the photolysis solution (the “dark control”).
# [14] = Photolysis / cleavage of the esters to dicamba (statements of the description); format: physicochemical; conditions: qualitative
# Excerpt: The efficacy of the photolabile esters can be assayed in vitro, or in greenhouse or field experiments. A useful in vitro assay for post-emergent activity involves photolysis of a dilute solution of the esters using simulated sunlight. This is conveniently achieved by photolysis of a solution of the ester in an organic solvent which is miscible with water and to which some water has been added. As described in the Examples, photolysis in acetonitrile or tetrahydrofuran containing 10% water by weight is effective. Low concentrations of the ester should be used so that the entire volume is exposed to sunlight. Since the maximum extinction coefficient of the typical esters above 220 nm is in the range of 1000-10,000 M^−1 cm^−1, a concentration of 0.1 mM is effective. Photolysis in a quartz tube exposed to simulated or actual sunlight is a typical protocol.
# [15] = 280 g dicamba acid equivalent per hectare
# [16] = 560 g dicamba acid equivalent per hectare
# [17] = 280 and 420 g dicamba acid equivalent per hectare
smiles,measurement,setting,value
"COc1c(Cl)ccc(Cl)c1C(=O)O.NCCOCCO [Diglycolamine salt, diglycolamine salt of dicamba, reference compound]","% control, 280 g/ha, Velvetleaf",velvetleaf [1],87%
same,"% control, 420 g/ha, Velvetleaf",velvetleaf [1],91%
same,"% control, 280 g/ha, Hemp sesbania",hemp sesbania [2],81%
same,"% control, 420 g/ha, Hemp sesbania",hemp sesbania [2],88%
same,"% control, 280 g/ha, Morning glory",morning glory [3],100%
same,"% control, 420 g/ha, Morning glory",morning glory [3],100%
same,"% Control of velvetleaf, 140 g/ha",velvetleaf [4]; 140 g/ha,54%
same,"% Control of velvetleaf, 280 g/ha",velvetleaf [4]; 280 g/ha,86%
same,"% Control of velvetleaf, 420 g/ha",velvetleaf [4]; 420 g/ha,96%
same,"% Control of velvetleaf, 560 g/ha",velvetleaf [4]; 560 g/ha,96%
same,"% control 19 days after treatment, 280 g/ha, Velvetleaf",velvetleaf [5]; [15],78 ± 10%
same,"% control 19 days after treatment, 560 g/ha, Velvetleaf",velvetleaf [5]; [16],91 ± 7%
same,"% control 19 days after treatment, 280 g/ha, Hemp sesbania",hemp sesbania [6]; [15],89 ± 5%
same,"% control 19 days after treatment, 560 g/ha, Hemp sesbania",hemp sesbania [6]; [16],96 ± 2%
same,"% control 19 days after treatment, 280 g/ha, Morning glory",morning glory [7]; [15],89 ± 11%
same,"% control 19 days after treatment, 560 g/ha, Morning glory",morning glory [7]; [16],94 ± 12%
same,"% Control of velvetleaf, 140 g/ha",velvetleaf [8]; 140 g/ha,43.3%
same,"% Control of velvetleaf, 280 g/ha",velvetleaf [8]; 280 g/ha,65.8%
same,"% Control of velvetleaf, 420 g/ha",velvetleaf [8]; 420 g/ha,87.5%
same,"% Control of velvetleaf, 560 g/ha",velvetleaf [8]; 560 g/ha,90.0%
same,"% control, 0.25 lb/ac (0.28 kg/hectare)",Euphorbia species,53%
same,"% control, 0.50 lb/ac (0.56 kg/hectare)",Euphorbia species,70%
same,average dicamba level from the five air samplers,[9],11.1 ng/m^3
same,"% Control of velvetleaf, 140 g/ha",velvetleaf [10],44%
same,"% Control of velvetleaf, 280 g/ha",velvetleaf [10],63%
same,"% Control of velvetleaf, 420 g/ha",velvetleaf [10],68%
same,"% Control of velvetleaf, 560 g/ha",velvetleaf [10],83%
same,Growth Stage,[11],6
same,average injury to soybeans,soybeans,60%
"COc1ccc(C(=O)COC(=O)c2c(Cl)ccc(Cl)c2OC)cc1 [Ester 9, 4-methoxyphenacyl methyl ester of dicamba]","post-emergent control of velvetleaf compared with the dicamba salt, in words",velvetleaf [1]; [17],nearly equivalent to the dicamba salt
same,"% control, 280 g/ha, Velvetleaf",velvetleaf [1],79%
same,"% control, 420 g/ha, Velvetleaf",velvetleaf [1],80%
same,"post-emergent control of hemp sesbania compared with the dicamba salt, in words",hemp sesbania [2]; [17],equivalent to the dicamba salt
same,"% control, 280 g/ha, Hemp sesbania",hemp sesbania [2],86%
same,"% control, 420 g/ha, Hemp sesbania",hemp sesbania [2],93%
same,"post-emergent control of morning glory compared with the dicamba salt, in words",morning glory [3]; [17],equivalent to the dicamba salt
same,"% control, 280 g/ha, Morning glory",morning glory [3],98%
same,"% control, 420 g/ha, Morning glory",morning glory [3],100%
same,"solubility, in words",[12],relatively insoluble
same,"control of a number of broadleaf weeds in field testing, in words",broadleaf weeds,proven effective
same,"% control, 0.25 lb/ac (0.28 kg/hectare)",Euphorbia species,54%
same,"% control, 0.50 lb/ac (0.56 kg/hectare)",Euphorbia species,62%
same,Dark Control % dicamba,"[13]; THF, 0.1 mM ester, initial solution kept away from the light source, analyzed at conclusion of study",1%
same,"Conversion to dicamba, 1 day","[13]; THF, 0.1 mM ester, simulated sunlight 14 hours per day, 35° C., 1 day",76%
same,"Conversion to dicamba, 2 days","[13]; THF, 0.1 mM ester, simulated sunlight 14 hours per day, 35° C., 2 days",91%
same,"Conversion to dicamba, 3 days","[13]; THF, 0.1 mM ester, simulated sunlight 14 hours per day, 35° C., 3 days",90%
same,"Conversion to dicamba, 5 days","[13]; THF, 0.1 mM ester, simulated sunlight 14 hours per day, 35° C., 5 days",89%
same,"Conversion to dicamba, 7 days","[13]; THF, 0.1 mM ester, simulated sunlight 14 hours per day, 35° C., 7 days",89%
same,photo-efficiency of dicamba generation,[13]; in vitro studies,~100%
same,"photolysis / photo-release of dicamba, in words",[14],efficient photo-release of 9 in a suspension concentrate formulation occurs over several weeks
same,"% Control of velvetleaf, 140 g/ha",velvetleaf [10],23%
same,"% Control of velvetleaf, 280 g/ha",velvetleaf [10],19%
same,"% Control of velvetleaf, 420 g/ha",velvetleaf [10],28%
same,"% Control of velvetleaf, 560 g/ha",velvetleaf [10],29%

# — patent US20170029355A1, “LABILE ESTERS OF AGROCHEMICALS FOR CONTROLLED RELEASE AND REDUCTION OF OFF-SITE MOVEMENT” (Monsanto Technology LLC, priority 2011, published 2017)
